In patent US10781171B2, “Substituted pyrrolidines as G-protein coupled receptor 43 agonists” (Epics Therapeutics, priority 2009, dated 2020):

Tested on: ob/ob mice
Experiment: Oral glucose tolerance test (OGTT) in ob/ob mice
Type: in vivo, mouse
Settings: blood glucose AUC -15 to 120 min in OGTT, 50 mg/kg bi-daily for 28 days
Experimental: Ob/ob or obese mice are leptin-deficient mice that eat excessively and become profoundly obese, hyperinsulinemic and hyperglycemic. It is an animal model of type II diabetes. Such model can be used for oral glucose tolerance tests (OGTTs). A total of sixteen (16) male ob/ob mice (6 weeks of age) were obtained from Harlan. Upon arrival to the animal unit, mice were housed 4 per cage in rodent cages mounted with feeders containing regular chow. The mice were put in a 12/12h light-dark cycle (light from 0600-1800 h) with controlled temperature conditions (22-24° C.). Fed blood glucose and body-weight was measured on day −2 in the morning between 08:00 AM and 09:00 AM. Animals were randomized into 2 groups according to fed glucose levels (on day −2). […]
Day 1 is the first day of dosing. […] At −15 min, blood glucose was measured (using a glucose analyzer) and animals were dosed with compounds of the invention or vehicle. At time point 0, blood glucose was measured again and glucose was administered by oral gavage (1 g/kg glucose). The blood glucose was then measured at time points 15, 30, 45, 60 and 120 minutes. […] The percentages of AUC inhibition induced by compounds of the invention were calculated as follows: % of AUC inhibition: [1-(AUC compound/AUC vehicule)]*100.

## COc1ccccc1-c1ccc(C(=O)N2[C@@H](c3ccccc3Cl)CC[C@H]2C(=O)O)cc1 [Compound 1, (2S,5R)-5-(2-chlorophenyl)-1-(2′-methoxy-[1,1′-biphenyl]-4-carbonyl)pyrrolidine-2-carboxylic acid]
  % of AUC inhibition: 40%
